# System: male MC-3R^−/− and WT mice
# Assay: Peripheral MTII administration: 24-h food consumption
# Settings: single intraperitoneal injection, 10 mg/kg, n=9, P<0.05
# Procedure: Peripheral MTII administration—For seven consecutive days, individually-housed 23-25-week-old male MC-3R^−/− (n=9) and WT (n=9) mice received an intraperitoneal (ip) injection of a sterile 0.9% NaCl vehicle solution approximately 30 min before the onset of the dark phase of the light cycle. At the same time on the eighth consecutive day of the study, mice received an ip injection of MTII at a dose of 10 mg/kg delivered in vehicle. Body and food (Teklad 7012) weights were measured and recorded daily approximately 15 min prior to injection.
substance,measurement,setting,value
MTII,reduction of food consumption over a 24-h period relative to a 2-day vehicle treatment baseline,MC-3R^−/− male mice,16.9±7.0%
same,reduction of food consumption over a 24-h period relative to a 2-day vehicle treatment baseline,WT male mice,11.1±4.3%
